Tested on: 857933-349-R-J2-PDC complex spheroids, viability
Assay: Anticancer human tumor 857933-349-R-J2-PDC patient-derived colon adenocarcinoma cell line growth inhibition [GQUAD]
Conditions: for IC50: curve of first compound; for viability, T/C: stronger effect = lower value
In short: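 Tumor cells were grown as complex spheroids with HUVEC endothelial cells and mesenchymal stem cells as stroma. G-quadruplex stabilizers were combined with targeted agents over half-log dilutions from near the clinical Cmax, or from 10 microM.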

[1] = second compound 0.0316 µM, first compound 0.0316 µM
[2] = second compound 0.0316 µM, first compound 0.1 µM
[3] = second compound 0.0316 µM, first compound 0.316 µM
[4] = second compound 0.0316 µM, first compound 1 µM
[5] = second compound 0.0316 µM, first compound 3.16 µM
[6] = second compound 0.0316 µM, first compound 10 µM
[7] = second compound 0.1 µM, first compound 0.0316 µM
[8] = second compound 0.1 µM, first compound 0.1 µM
[9] = second compound 0.1 µM, first compound 0.316 µM
[10] = second compound 0.1 µM, first compound 1 µM
[11] = second compound 0.1 µM, first compound 3.16 µM
[12] = second compound 0.1 µM, first compound 10 µM
[13] = second compound 0.316 µM, first compound 0.0316 µM
[14] = second compound 0.316 µM, first compound 0.1 µM
[15] = second compound 0.316 µM, first compound 0.316 µM
[16] = second compound 0.316 µM, first compound 1 µM
[17] = second compound 0.316 µM, first compound 3.16 µM
[18] = second compound 0.316 µM, first compound 10 µM
[19] = second compound 1 µM, first compound 0.0316 µM
[20] = second compound 1 µM, first compound 0.1 µM
[21] = second compound 1 µM, first compound 0.316 µM
[22] = second compound 1 µM, first compound 1 µM
[23] = second compound 1 µM, first compound 3.16 µM
[24] = second compound 1 µM, first compound 10 µM
[25] = second compound 3.16 µM, first compound 0.0316 µM
[26] = second compound 3.16 µM, first compound 0.1 µM
[27] = second compound 3.16 µM, first compound 0.316 µM
[28] = second compound 3.16 µM, first compound 1 µM
[29] = second compound 3.16 µM, first compound 3.16 µM
[30] = second compound 3.16 µM, first compound 10 µM
[31] = second compound 10 µM, first compound 0.0316 µM
[32] = second compound 10 µM, first compound 0.1 µM
[33] = second compound 10 µM, first compound 0.316 µM
[34] = second compound 10 µM, first compound 1 µM
[35] = second compound 10 µM, first compound 3.16 µM
[36] = second compound 10 µM, first compound 10 µM
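Further: spheroids exposed to compounds for one week before readout.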
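Wherever viability, T/C is given: percent viability relative to vehicle DMSO wells taken as 100%.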

## O=C(c1cc(Cc2n[nH]c(=O)c3ccccc23)ccc1F)N1CCN(C(=O)C2CC2)CC1 + Cc1[nH]c2ccc(F)cc2c1-c1nc2c3cccnc3c3ncccc3c2[nH]1
Second compound 0.0316 µM
  IC50: > 10000 nM
Second compound 0.1 µM
  IC50: > 10000 nM
Second compound 0.316 µM
  IC50: > 10000 nM
Second compound 1 µM
  IC50: > 10000 nM
Second compound 3.16 µM
  IC50: > 10000 nM
Second compound 10 µM
  IC50: > 10000 nM
[1]
  viability, T/C: 108%
[2]
  viability, T/C: 95.7%
[3]
  viability, T/C: 98.1%
[4]
  viability, T/C: 96.8%
[5]
  viability, T/C: 118%
[6]
  viability, T/C: 93.4%
[7]
  viability, T/C: 113%
[8]
  viability, T/C: 112%
[9]
  viability, T/C: 92%
[10]
  viability, T/C: 100%
[11]
  viability, T/C: 98.5%
[12]
  viability, T/C: 101%
[13]
  viability, T/C: 102%
[14]
  viability, T/C: 110%
[15]
  viability, T/C: 106%
[16]
  viability, T/C: 97.1%
[17]
  viability, T/C: 103%
[18]
  viability, T/C: 90.9%
[19]
  viability, T/C: 92.5%
[20]
  viability, T/C: 99.7%
[21]
  viability, T/C: 95.7%
[22]
  viability, T/C: 97.6%
[23]
  viability, T/C: 103%
[24]
  viability, T/C: 96.5%
[25]
  viability, T/C: 99.2%
[26]
  viability, T/C: 105%
[27]
  viability, T/C: 98.3%
[28]
  viability, T/C: 98.6%
[29]
  viability, T/C: 100%
[30]
  viability, T/C: 108%
[31]
  viability, T/C: 99.9%
[32]
  viability, T/C: 100%
[33]
  viability, T/C: 101%
[34]
  viability, T/C: 99.8%
[35]
  viability, T/C: 99.3%
[36]
  viability, T/C: 98%

## O=c1[nH]cc(F)c(=O)[nH]1 + Cc1[nH]c2ccc(F)cc2c1-c1nc2c3cccnc3c3ncccc3c2[nH]1
Second compound 0.0316 µM
  IC50: 1720 nM
Second compound 0.1 µM
  IC50: 1800 nM
Second compound 0.316 µM
  IC50: 2100 nM
Second compound 1 µM
  IC50: 2150 nM
Second compound 3.16 µM
  IC50: 2060 nM
Second compound 10 µM
  IC50: 2200 nM
[1]
  viability, T/C: 97.1%
[2]
  viability, T/C: 111%
[3]
  viability, T/C: 99%
[4]
  viability, T/C: 65.7%
[5]
  viability, T/C: 33.3%
[6]
  viability, T/C: 22.6%
[7]
  viability, T/C: 104%
[8]
  viability, T/C: 103%
[9]
  viability, T/C: 96.8%
[10]
  viability, T/C: 64.8%
[11]
  viability, T/C: 36%
[12]
  viability, T/C: 22.5%
[13]
  viability, T/C: 100%
[14]
  viability, T/C: 99.3%
[15]
  viability, T/C: 94%
[16]
  viability, T/C: 74.9%
[17]
  viability, T/C: 36.1%
[18]
  viability, T/C: 22.6%
[19]
  viability, T/C: 101%
[20]
  viability, T/C: 98.2%
[21]
  viability, T/C: 96.7%
[22]
  viability, T/C: 75.7%
[23]
  viability, T/C: 37%
[24]
  viability, T/C: 23%
[25]
  viability, T/C: 96.3%
[26]
  viability, T/C: 94.7%
[27]
  viability, T/C: 96.7%
[28]
  viability, T/C: 73.8%
[29]
  viability, T/C: 36.1%
[30]
  viability, T/C: 22.6%
[31]
  viability, T/C: 93.2%
[32]
  viability, T/C: 96.8%
[33]
  viability, T/C: 95.2%
[34]
  viability, T/C: 82%
[35]
  viability, T/C: 35.3%
[36]
  viability, T/C: 24.8%

## C=CC(=O)N1CCN(c2nc(=O)n(-c3c(C)ccnc3C(C)C)c3nc(-c4c(O)cccc4F)c(F)cc23)C(C)C1 (stereo unspecified) + Cc1cnc(CNC(=O)c2c(=O)c3ccc(N4CCCN(C)CC4)nc3n3c2sc2ccccc23)cn1
Second compound 0.0316 µM
  IC50: > 10000 nM
Second compound 0.1 µM
  IC50: > 10000 nM
Second compound 0.316 µM
  IC50: < 31.6 nM
Second compound 1 µM
  IC50: < 31.6 nM
Second compound 3.16 µM
  IC50: < 31.6 nM
Second compound 10 µM
  IC50: < 31.6 nM
[1]
  viability, T/C: 106%
[2]
  viability, T/C: 85.1%
[3]
  viability, T/C: 91.4%
[4]
  viability, T/C: 88.1%
[5]
  viability, T/C: 111%
[6]
  viability, T/C: 79.3%
[7]
  viability, T/C: 59.7%
[8]
  viability, T/C: 69.3%
[9]
  viability, T/C: 64.4%
[10]
  viability, T/C: 73%
[11]
  viability, T/C: 78.2%
[12]
  viability, T/C: 67%
[13]
  viability, T/C: 19.7%
[14]
  viability, T/C: 25.7%
[15]
  viability, T/C: 26.4%
[16]
  viability, T/C: 22.1%
[17]
  viability, T/C: 34.4%
[18]
  viability, T/C: 30.8%
[19]
  viability, T/C: 4.37%
[20]
  viability, T/C: 5.36%
[21]
  viability, T/C: 4.38%
[22]
  viability, T/C: 4.4%
[23]
  viability, T/C: 4.7%
[24]
  viability, T/C: 5.94%
[25]
  viability, T/C: 2.59%
[26]
  viability, T/C: 2.48%
[27]
  viability, T/C: 2.57%
[28]
  viability, T/C: 3.03%
[29]
  viability, T/C: 3.31%
[30]
  viability, T/C: 2.69%
[31]
  viability, T/C: 1.16%
[32]
  viability, T/C: 1.17%
[33]
  viability, T/C: 1.22%
[34]
  viability, T/C: 1.56%
[35]
  viability, T/C: 1.95%
[36]
  viability, T/C: 1.37%

Source: PubChem BioAssay AID2060491 (Molecular Pharmacology Branch, DTP, NCI, 2025)
